{"source": "patent US8703786B2", "about": "“Etravirine formulations and uses thereof” (priority 2011, dated 2014)", "key": {"[1]": {"assay": "Solubility of etravirine in various media by phase solubility analysis (HPLC-UV)", "type": "physicochemical", "details": "for solubility at 72 h: thermodynamic from solid", "experimental": "The solubility of etravirine was determined in water, various oils and some organic solvents by phase solubility analysis. Excess drug was added into 20 ml screw-capped scintillation vials containing 5 ml of the tested solvents. The vials were rotated end-over-end at a constant speed on shaker (EBERBACH Corporation, Ann Arbor, Mich.) at room temperature for 3 days (72 hours). The samples were then subjected to centrifugation on a laboratory centrifuge at 13,000 rpm for 15 minutes. Aliquot of the supernatant was diluted with DMSO to the proper concentration before they were analyzed by high-performance liquid chromatography (HPLC) using UV detector.\nThe HPLC system involved Waters 600 pump, 2487 UV detector and 717 plus auto sampler (Waters Corporation, Milford, Mass.). Separations were done on a 4.6×150 mm, 3.5 μm XTerra MS-C18 column (Waters Corporation, Milford, Mass.). The flow rate was set at 1 ml/min and the wavelength at 304 nm. Chromatographic data acquisition, peak integration and quantification were performed using the Empower software package by Waters Corporation. Mobile phase solution A consisted of 20 mM potassium dihydrogen phosphate aqueous solution and solution B consisted of acetonitrile (40% solution A+60% solution B). pH was adjusted to 3.2 using phosphoric acid. Solvents were regularly prepared prior to each series of analysis."}, "p-gp": {"target": "p-gp (Homo sapiens, UniProt P08183)", "sequence (P08183 whole entry)": "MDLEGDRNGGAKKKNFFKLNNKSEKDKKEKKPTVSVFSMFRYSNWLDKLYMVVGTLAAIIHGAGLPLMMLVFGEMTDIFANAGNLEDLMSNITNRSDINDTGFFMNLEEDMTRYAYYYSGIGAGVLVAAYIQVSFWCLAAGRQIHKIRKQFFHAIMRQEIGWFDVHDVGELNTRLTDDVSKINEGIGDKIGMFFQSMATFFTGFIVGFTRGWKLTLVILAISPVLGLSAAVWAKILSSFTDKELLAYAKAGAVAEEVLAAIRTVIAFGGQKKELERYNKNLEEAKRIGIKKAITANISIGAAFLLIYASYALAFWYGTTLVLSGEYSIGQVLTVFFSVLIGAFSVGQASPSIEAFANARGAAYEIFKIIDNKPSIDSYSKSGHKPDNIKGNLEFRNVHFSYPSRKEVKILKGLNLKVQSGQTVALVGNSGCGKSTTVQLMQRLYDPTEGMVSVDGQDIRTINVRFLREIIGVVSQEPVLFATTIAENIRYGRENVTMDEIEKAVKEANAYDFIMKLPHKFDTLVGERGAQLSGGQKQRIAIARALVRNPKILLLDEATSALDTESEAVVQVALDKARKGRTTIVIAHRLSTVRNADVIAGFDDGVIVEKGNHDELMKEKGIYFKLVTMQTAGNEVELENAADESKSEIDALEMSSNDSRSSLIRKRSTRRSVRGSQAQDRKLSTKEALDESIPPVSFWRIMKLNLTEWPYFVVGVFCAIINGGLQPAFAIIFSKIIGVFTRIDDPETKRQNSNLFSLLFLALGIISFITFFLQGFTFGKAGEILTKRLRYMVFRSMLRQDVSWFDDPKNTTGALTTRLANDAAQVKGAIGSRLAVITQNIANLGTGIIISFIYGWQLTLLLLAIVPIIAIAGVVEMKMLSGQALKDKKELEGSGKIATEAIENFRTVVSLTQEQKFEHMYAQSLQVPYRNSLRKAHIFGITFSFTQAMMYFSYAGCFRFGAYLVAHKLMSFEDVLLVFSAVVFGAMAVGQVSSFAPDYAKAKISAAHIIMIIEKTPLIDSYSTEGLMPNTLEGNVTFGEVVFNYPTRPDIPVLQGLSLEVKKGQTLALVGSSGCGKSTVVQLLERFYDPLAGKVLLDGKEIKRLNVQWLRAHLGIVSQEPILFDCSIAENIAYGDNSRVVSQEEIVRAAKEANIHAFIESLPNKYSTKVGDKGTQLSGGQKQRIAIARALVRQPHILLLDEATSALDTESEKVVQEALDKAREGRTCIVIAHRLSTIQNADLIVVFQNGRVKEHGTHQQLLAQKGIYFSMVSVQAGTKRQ", "details": "in vitro; read-out: apparent IC50 (inhibitor of p-gp); cited from earlier work"}, "[2]": {"assay": "Pharmacokinetic / oral bioavailability study in rats (LC-MS/MS of plasma)", "type": "in vivo", "details": "male, Sprague-Dawley, rat", "quoted_text": "Male Sprague-Dawley rats (250-350 g, Harlan Laboratory Inc., Indianapolis, Ind.) were housed in stainless steel cages and had free access to food and water. They were acclimated to the animal care facility for at least 7 days before the start of the study. To facilitate the withdrawal of timed, multiple blood samples from each animal, the right jugular vein of each animal was cannulated one day prior to drug administration. The cannulas were flushed daily with 0.5 mL sterile heparinized saline (100 units/ml). Under ketamine:acetopromazine:xylazine (50:3.3:3.3 mg/kg ip) anesthesia, silicone elastomer tubing (0.02×0.037 in) was inserted into the jugular vein, secured with a silk suture, and exteriorized in the dorsal infrascapular area. The surgical incision was prophylactically treated with nitrofurazone wound powder and closed with surgical staples.\nAnimals were allowed free access to food and water at all times. The jugular veins of the rats were cannulated under anesthesia the day before the study. All in vivo studies were initiated between 8:00 am and 9:00 am to eliminate possible circadian variation. The animals were fasted overnight with water allowed ad libitum before oral dosing.\nThe in vivo study consists of four rat groups. […] The second group is a reference group (n=5) which was given an oral 200 mg/kg administration of a suspension of the commercial Intelence® tablets in 1% Tween 80. […] Oral administration was performed using an animal feeding needle (18 in.×3 in. W; 2¼ mm Ball). Multiple blood samples (0.25 mL) were collected (from the jugular vein cannula) immediately before dosing and at 0.5, 1, 1.5, 2, 3, 4, 5, 6, 8, 10 and 24 hours after dosing. An aliquot of each plasma sample was stored at −70° C. pending LC-MS/MS assay.\nEtravirine concentrations in rat plasma was analyzed using a sensitive and accurate liquid chromatographic-tandem mass spectrometry (LC-MS/MS) method developed in the laboratory (10). […] The column effluent was monitored using a 3200 QTRAP® mass spectrum, which is a hybrid triple quadruple linear ion trap equipped with a Turbolonspray ion source. […]"}, "[3]": {"details": "cited from earlier work; for Biopharmaceutics Classification System class: low water solubility and permeability"}, "plasma proteins": {"system": "plasma proteins", "details": "cited from earlier work"}, "[4]": {"details": "cited from earlier work"}}, "note": "Like-named read-outs stand apart in the source and are kept apart here."}
{"smiles": "Cc1cc(C#N)cc(C)c1Oc1nc(Nc2ccc(C#N)cc2)nc(N)c1Br", "note": "[Etravirine, 4-[[6-amino-5-bromo-2-[(4-cyanophenyl)amino]-4-pyrimidinyl]oxy]-3,5-dimethyl benzonitrile]", "values": [{"measurement": "solubility at 72 h", "setting": "[1]; distilled water, water, read-out: intrinsic solubility", "result": 3.9, "unit": "µg/mL"}, {"measurement": "solubility (descriptive)", "setting": "[1]; in DMSO and 1-methyl-2-pyrrolidinone", "result": "freely soluble"}, {"measurement": "solubility (descriptive)", "setting": "[1]; in PEG 400, Tween 80, Cremophore EL, Tween 20, and Labrasol", "result": "soluble"}, {"measurement": "solubility (descriptive)", "setting": "[1]; in corn oil, soybean oil and olive oil", "result": "very slightly soluble"}, {"measurement": "solubility (descriptive)", "setting": "[1]; in peanut oil, Caproyl 90", "result": "slightly soluble"}, {"measurement": "solubility (descriptive)", "setting": "[1]; in water", "result": "practically insoluble"}, {"measurement": "solubility at 72 h", "setting": "[1]; oil or lipid, Caproyl 90, room temperature, read-out: Drug Solubility", "result": "5420 ± 60", "unit": "µg/mL"}, {"measurement": "solubility at 72 h", "setting": "[1]; oil or lipid, Coriander Oil, room temperature, read-out: Drug Solubility", "result": 740, "unit": "µg/mL"}, {"measurement": "solubility at 72 h", "setting": "[1]; oil or lipid, Corn Oil, room temperature, read-out: Drug Solubility", "result": 420, "unit": "µg/mL"}, {"measurement": "solubility at 72 h", "setting": "[1]; oil or lipid, Labrafac CC, room temperature, read-out: Drug Solubility", "result": "1040 ± 10", "unit": "µg/mL"}, {"measurement": "solubility at 72 h", "setting": "[1]; oil or lipid, Lavender Oil, room temperature, read-out: Drug Solubility", "result": 1230, "unit": "µg/mL"}, {"measurement": "solubility at 72 h", "setting": "[1]; oil or lipid, Linseed Oil, room temperature, read-out: Drug Solubility", "result": 790, "unit": "µg/mL"}, {"measurement": "solubility at 72 h", "setting": "[1]; oil or lipid, Mineral Oil, room temperature, read-out: Drug Solubility", "result": 4, "unit": "µg/mL"}, {"measurement": "solubility at 72 h", "setting": "[1]; oil or lipid, Olive Oil, room temperature, read-out: Drug Solubility", "result": 220, "unit": "µg/mL"}, {"measurement": "solubility at 72 h", "setting": "[1]; oil or lipid, Paraffin Oil, room temperature, read-out: Drug Solubility", "result": 9, "unit": "µg/mL"}, {"measurement": "solubility at 72 h", "setting": "[1]; oil or lipid, Peanut Oil, room temperature, read-out: Drug Solubility", "result": 2190, "unit": "µg/mL"}, {"measurement": "solubility at 72 h", "setting": "[1]; oil or lipid, Pluro oleique CC 497, room temperature, read-out: Drug Solubility", "result": "1040 ± 20", "unit": "µg/mL"}, {"measurement": "solubility at 72 h", "setting": "[1]; oil or lipid, Soybean Oil, room temperature, read-out: Drug Solubility", "result": 310, "unit": "µg/mL"}, {"measurement": "solubility at 72 h", "setting": "[1]; organic solvent or mixture, 1-methyl-2-pyrrolidinone, room temperature, read-out: Drug Solubility", "result": 458000, "unit": "µg/mL"}, {"measurement": "solubility at 72 h", "setting": "[1]; organic solvent or mixture, Cremophore EL, room temperature, read-out: Drug Solubility", "result": "46000 ± 690", "unit": "µg/mL"}, {"measurement": "solubility at 72 h", "setting": "[1]; organic solvent or mixture, Labrasole, room temperature, read-out: Drug Solubility", "result": 61000, "unit": "µg/mL"}, {"measurement": "solubility at 72 h", "setting": "[1]; organic solvent or mixture, PEG 400, room temperature, read-out: Drug Solubility", "result": 71600, "unit": "µg/mL"}, {"measurement": "solubility at 72 h", "setting": "[1]; organic solvent or mixture, Tween 20, room temperature, read-out: Drug Solubility", "result": "55800 ± 870", "unit": "µg/mL"}, {"measurement": "solubility at 72 h", "setting": "[1]; organic solvent or mixture, Tween 80, room temperature, read-out: Drug Solubility", "result": "49700 ± 410", "unit": "µg/mL"}, {"measurement": "solubility at 72 h", "setting": "[1]; Water, room temperature, read-out: Drug Solubility", "result": 3.97, "unit": "µg/mL"}, {"measurement": "IC50", "setting": "p-gp", "result": 24.2, "unit": "µM"}, {"measurement": "AUC", "setting": "[2]; IV 2.5 mg/kg", "result": "1660 ± 498", "unit": "ng·h/mL"}, {"measurement": "Cmax", "setting": "[2]; IV 2.5 mg/kg (solution in DMSO)", "result": "2360 ± 1120", "unit": "ng/mL"}, {"measurement": "half-life", "setting": "[2]; IV 2.5 mg/kg, read-out: T1/2 (terminal biological half-life) (converted)", "result": "1.14 ± 0.91", "unit": "h"}, {"measurement": "solubility in PEG 400 reported in the scientific literature", "setting": "[3]; PEG 400", "result": 74000, "unit": "µg/mL"}, {"measurement": "ionization constant (pka)", "setting": "[3]", "result": 3.75}, {"measurement": "octanol:water partition coefficient (logP)", "setting": "[3]", "result": "greater than 5"}, {"measurement": "Biopharmaceutics Classification System class", "setting": "[3]", "result": "class IV"}, {"measurement": "Biopharmaceutics Classification System class", "setting": "[3]; listed as etravirine", "result": "class IV"}, {"measurement": "binding to plasma proteins", "setting": "plasma proteins", "result": "highly bound"}, {"measurement": "time of median peak concentration", "setting": "[4]; fasted oral administration", "result": "approximately 4.0 hours"}, {"measurement": "terminal elimination half-life in plasma", "setting": "[4]; in vivo", "result": "30 to 40", "unit": "h"}]}
